Where a name gives a salt, the structure may show the parent alone. Residues, ends and D or L forms follow the SMILES beside them.
Tests used:
[1] = Blood glucose after oral glucose stimulation and oral administration (glucose tolerance); format: in vivo; settings: Wistar rats; within 100 minutes of p.o. glucose stimulation; p.o. dose 2.5 um active substance/300 g of animal; control = 100
[2] = biological target: T1, human peptide transporter PepT1 (Homo sapiens, UniProt P46059); assay: Electrophysiological transport analysis, hPEPT1 expressed in oocytes; format: cell-based
T1 construct: expressed in transfected cells
T1 sequence (P46059 1-708): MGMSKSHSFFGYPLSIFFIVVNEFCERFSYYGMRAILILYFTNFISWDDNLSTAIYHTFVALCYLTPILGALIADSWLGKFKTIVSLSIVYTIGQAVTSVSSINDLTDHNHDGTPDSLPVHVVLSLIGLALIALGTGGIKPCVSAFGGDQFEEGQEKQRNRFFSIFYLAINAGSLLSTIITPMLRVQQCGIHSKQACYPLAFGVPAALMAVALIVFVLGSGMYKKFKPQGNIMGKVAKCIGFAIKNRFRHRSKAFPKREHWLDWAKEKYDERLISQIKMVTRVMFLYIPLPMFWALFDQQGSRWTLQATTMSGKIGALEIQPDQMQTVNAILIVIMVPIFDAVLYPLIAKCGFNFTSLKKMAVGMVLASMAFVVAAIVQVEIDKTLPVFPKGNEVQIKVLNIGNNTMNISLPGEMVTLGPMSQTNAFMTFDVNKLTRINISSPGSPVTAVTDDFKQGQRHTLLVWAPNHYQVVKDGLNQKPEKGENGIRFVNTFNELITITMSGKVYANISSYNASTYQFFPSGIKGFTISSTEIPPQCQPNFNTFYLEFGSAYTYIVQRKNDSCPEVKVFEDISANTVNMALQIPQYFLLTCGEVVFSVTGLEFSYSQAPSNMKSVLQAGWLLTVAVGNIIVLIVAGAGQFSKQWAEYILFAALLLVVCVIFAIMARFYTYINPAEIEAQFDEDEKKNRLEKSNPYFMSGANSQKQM

[3] = biological target: T1, human peptide transporter PepT1; assay: Affinity to PepT1 by displacement of radioactively labeled D-Phe-Ala; settings: read-out: Binding constant, mM, to PepT1, relative to D-Phe-Ala
human blood-DP IV = biological target: T2, human blood-DP IV (Homo sapiens, UniProt P27487); assay: Inhibition of DP IV in human whole blood by release of Ile-Thia from prodrugs; settings: same concentration of prodrug, compared with Pro-Ile-Thia and Gly-Pro-Ile-Thia
T2 construct: from tissue; host or cells: human whole blood
T2 sequence (P27487 whole entry): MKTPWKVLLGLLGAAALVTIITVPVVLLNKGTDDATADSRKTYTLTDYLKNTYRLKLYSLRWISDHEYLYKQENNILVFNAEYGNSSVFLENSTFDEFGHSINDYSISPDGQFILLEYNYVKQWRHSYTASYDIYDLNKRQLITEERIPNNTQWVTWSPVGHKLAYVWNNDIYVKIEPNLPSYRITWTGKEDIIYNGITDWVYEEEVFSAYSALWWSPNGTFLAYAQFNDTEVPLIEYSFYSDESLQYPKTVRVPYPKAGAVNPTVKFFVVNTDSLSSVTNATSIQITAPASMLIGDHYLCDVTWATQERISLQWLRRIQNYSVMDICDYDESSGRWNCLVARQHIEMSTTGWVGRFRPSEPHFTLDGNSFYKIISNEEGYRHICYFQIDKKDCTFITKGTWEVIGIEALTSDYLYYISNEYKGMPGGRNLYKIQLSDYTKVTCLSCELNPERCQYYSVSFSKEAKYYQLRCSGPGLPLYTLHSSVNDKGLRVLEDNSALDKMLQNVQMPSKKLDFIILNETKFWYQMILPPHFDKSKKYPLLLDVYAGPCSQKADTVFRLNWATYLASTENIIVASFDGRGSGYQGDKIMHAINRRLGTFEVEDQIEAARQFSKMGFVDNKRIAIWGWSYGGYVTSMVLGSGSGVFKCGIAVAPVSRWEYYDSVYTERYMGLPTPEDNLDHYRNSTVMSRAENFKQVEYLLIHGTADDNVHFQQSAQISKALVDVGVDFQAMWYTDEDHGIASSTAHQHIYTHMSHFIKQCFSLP
Description: Release of the masked DP IV-inhibitor in the blood can be carried out, in the case of the examples selected, by DP IV itself (Pro-Pro-Ile-Thia=PPIThia, Gly-Pro-Ile-Thia=GPIThia) or by aminopeptidases (pGlu-Ile-Thia=pEIThia, Pro-Ile-Thia=PIThia) (FIG. 1).

Compound	Electrophys. transport analysis (hPEPT1 expr. in oocytes), flux % based on the Gly-Gln control (100%) [2]	Ki [3]	further results
H-Pro-Ile-Thia/HC1	–	–	% glucose level [1]: 56.1%
NCCCCC(N)C(=O)NC(Cc1ccccc1)C(=O)N1CCCC1C(=O)O (stereo not drawn) [Lys-Phe-Pro] (H-Lys-Phe-Pro-OH; configuration not given here)	10%	0.19 mM	–
CCC(C)C(N)C(=O)N1CCSC1 (stereo not shown) [Ile-Thia, isoleucyl thiazolidide]	25%	0.98 mM	% glucose level [1]: 74.4%
CC[C@H](C)[C@H](N)C(=O)N1CCC[C@H]1C(=O)N[C@H](C(=O)N1CCSC1)[C@@H](C)CC [Ile-Pro-Ile-Thia]	44%	0.61 mM	–
CC[C@H](C)[C@H](N)C(=O)N1CCC[C@H]1C(=O)N[C@H](C(=O)N1CCSC1)[C@@H](C)CC (as salt: HCl) [Ile-Pro-Ile-Thia]	–	–	melting point: 98 to 107 °C
NC(=O)CC(N)C(=O)N1CCCC1 (stereo not shown) [Asn-Pyr]	30%	3.01 mM	–
CCC(C)C(N)C(=O)N1CCCC1 (stereo not shown) [Ile-Pyr]	14%	2.66 mM	–
NCCCCC(N)C(=O)NC(Cc1ccccc1)C(=O)O (stereo not shown) [Lys-phe]	95%	0.08 mM	–
NC(=O)CC(N)C(=O)N1CCSC1 (stereo not shown) [Asn-Thia]	83%	0.5 mM	–
Pro-Pro-Ile-Thia	–	–	Release of the DP IV-inhibitor isoleucyl thiazolidide from the prodrug in the blood (time course of DP IV inhibition) (human blood-DP IV): more marked delay in the release of active substance
pGlu-Ile-Thia	–	–	Release of the DP IV-inhibitor isoleucyl thiazolidide from the prodrug in the blood (time course of DP IV inhibition) (human blood-DP IV): more marked delay in the release of active substance
H-Gly-Pro-Ile-Thia/HC1	–	–	% glucose level [1]: 57.1%
NC(Cc1c[nH]cn1)C(=O)N1CCCC1 (stereo not shown) [His-Pyr]	7%	5.34 mM	–

Reference: patent US7166579B2, “Prodrugs of DP IV-inhibitors” (Prosidion Limited, priority 1998, dated 2007)
